Data from patent US20210290597A1, “METHOD OF TREATING A CONDITION ASSOCIATED WITH NEURODEGENERATION USING INHIBITORS OF OAT3” (Neuropore Therapies, Inc., priority 2018, published 2021).

How the values were obtained:
human transporter OCT2 = biological target: T1, human transporter OCT2 (Homo sapiens, UniProt O15244); assay: In vitro ion transport assay 1, OCT2; format: cell-based; conditions: probe substrate 10 μM [14C]-metformin
T1 construct: expressed in transfected cells; host or cells: MDCK-II
T1 sequence (O15244 1-555): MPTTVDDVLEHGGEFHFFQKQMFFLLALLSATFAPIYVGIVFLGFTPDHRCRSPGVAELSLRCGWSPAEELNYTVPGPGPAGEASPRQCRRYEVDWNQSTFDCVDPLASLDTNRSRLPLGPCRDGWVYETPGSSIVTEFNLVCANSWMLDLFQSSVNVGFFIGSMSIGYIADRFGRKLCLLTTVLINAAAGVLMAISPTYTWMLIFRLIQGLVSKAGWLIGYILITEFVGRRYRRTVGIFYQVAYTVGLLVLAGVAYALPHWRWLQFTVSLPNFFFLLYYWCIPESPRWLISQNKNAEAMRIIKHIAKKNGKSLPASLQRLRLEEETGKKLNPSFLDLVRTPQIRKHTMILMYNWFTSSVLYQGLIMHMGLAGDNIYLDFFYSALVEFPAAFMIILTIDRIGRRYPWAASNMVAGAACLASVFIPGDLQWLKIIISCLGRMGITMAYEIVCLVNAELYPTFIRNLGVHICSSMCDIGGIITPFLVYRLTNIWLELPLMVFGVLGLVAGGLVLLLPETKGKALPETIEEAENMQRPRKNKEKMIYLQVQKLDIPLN
Protocol: (§1) Compound 1 was studied in the concentration range of 0.1-100 μM for its potency against transport mediated by various transporter proteins. [table]

[1] = biological target: T2, human transporter OATP1B1 (Homo sapiens, UniProt Q9Y6L6); assay: In vitro ion transport assay 1, OATP1B1; format: cell-based; conditions: probe substrate 2 μM [3H]-estradiol-17β-D-glucuronide
T2 construct: expressed in transfected cells; host or cells: MDCK-II
T2 sequence (Q9Y6L6 1-691): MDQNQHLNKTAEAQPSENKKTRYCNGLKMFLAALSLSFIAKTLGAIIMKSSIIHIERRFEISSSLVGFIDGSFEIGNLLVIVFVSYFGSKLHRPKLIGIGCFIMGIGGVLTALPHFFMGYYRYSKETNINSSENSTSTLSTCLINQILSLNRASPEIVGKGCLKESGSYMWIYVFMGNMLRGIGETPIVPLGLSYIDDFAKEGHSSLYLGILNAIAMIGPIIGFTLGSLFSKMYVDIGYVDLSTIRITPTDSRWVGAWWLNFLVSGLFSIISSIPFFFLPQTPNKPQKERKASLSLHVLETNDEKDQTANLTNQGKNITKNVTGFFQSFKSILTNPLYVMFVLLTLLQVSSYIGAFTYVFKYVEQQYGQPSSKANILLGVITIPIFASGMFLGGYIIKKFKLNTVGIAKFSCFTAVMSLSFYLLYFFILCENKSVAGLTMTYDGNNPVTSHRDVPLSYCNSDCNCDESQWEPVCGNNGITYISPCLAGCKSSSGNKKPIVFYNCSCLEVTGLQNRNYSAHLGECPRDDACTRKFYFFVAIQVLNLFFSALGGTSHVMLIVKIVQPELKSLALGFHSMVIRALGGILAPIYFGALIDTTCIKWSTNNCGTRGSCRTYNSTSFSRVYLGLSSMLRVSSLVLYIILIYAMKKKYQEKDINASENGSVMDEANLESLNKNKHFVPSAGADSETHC
Protocol: as §1

[2] = test system: PK-resistant alpha-synuclein; assay: PK-resistant (insoluble) alpha-synuclein IHC, L61 ASYN transgenic mice, 1 month study; format: in vivo; conditions: for reduction of PK-resistant alpha synuclein levels in cortex compared to vehicle-treated mice: L61 ASYN transgenic mice
Protocol: Multiple in vivo administration studies of Compound 1 were carried out in the Line 61 (L61) mThy1-alpha-synuclein transgenic mouse model of Parkinson's disease (PD). The mThy1-alpha-synuclein transgenic mouse model overexpresses wild-type human ASYN under the Thy-1 promoter (commonly referred to as Line 61 transgenic mice; Rockenstein et al., 2002). This transgenic mouse develops extensive accumulation of alpha-synuclein (ASYN) in areas relevant to PD (Rockenstein et al., 2002; Chesselet et al., 2012; Games et al., 2013), neurodegeneration including dopaminergic neurodegeneration, reduced dopamine (DA) and TH loss in the striatum (Masliah et al., 2000; Lam et al., 2011), and motor deficits (Fleming et al., 2004). Male transgenic and non-transgenic littermates (3-3.5 mo) were used for all in vivo studies presented here.
Alpha-synuclein (ASYN) is a neuronal protein whose dysregulation has been implicated in the pathogenesis of PD. The effects of Compound 1 on alpha-synuclein aggregation were assessed in both L61 ASYN transgenic and non-transgenic mice in a 1 month administration study. L61 ASYN transgenic mice (36 total mice, n=8-11 mice per treatment group) were injected (i.p.) daily with 1, 5, or 10 mg/kg of Compound 1 or a vehicle control (5% DMSO+20% Cremphor EL+0.9% normal saline) for 1 month. […] At the end of one month, the mice were sacrificed, and immunohistochemical (IHC) detection of total alpha-synuclein deposits, insoluble alpha-synuclein deposits (PK+resistant), microtubule-associated protein 1A/1B-light chain 3 (LC3), and monomeric alpha-synuclein levels were assessed in the harvested brain tissues.
The quantification and IHC staining of PK-resistant alpha-synuclein were performed using known techniques (Rockenstein et al., J Neurosci Res. 2002, 68(5):568-78; Tanji et al., Acta Neuropathol. 2010, 120, 145-154; Nuber et al., Brain. 2013 February; 136(Pt 2):412-32).

human transporter MATE1 = biological target: T3, human transporter MATE1 (Homo sapiens, UniProt Q96FL8); assay: In vitro ion transport assay 1, MATE1; format: cell-based; conditions: probe substrate 10 μM [14C]-metformin
T3 construct: expressed in transfected cells; host or cells: MDCK-II
T3 sequence (Q96FL8 1-570): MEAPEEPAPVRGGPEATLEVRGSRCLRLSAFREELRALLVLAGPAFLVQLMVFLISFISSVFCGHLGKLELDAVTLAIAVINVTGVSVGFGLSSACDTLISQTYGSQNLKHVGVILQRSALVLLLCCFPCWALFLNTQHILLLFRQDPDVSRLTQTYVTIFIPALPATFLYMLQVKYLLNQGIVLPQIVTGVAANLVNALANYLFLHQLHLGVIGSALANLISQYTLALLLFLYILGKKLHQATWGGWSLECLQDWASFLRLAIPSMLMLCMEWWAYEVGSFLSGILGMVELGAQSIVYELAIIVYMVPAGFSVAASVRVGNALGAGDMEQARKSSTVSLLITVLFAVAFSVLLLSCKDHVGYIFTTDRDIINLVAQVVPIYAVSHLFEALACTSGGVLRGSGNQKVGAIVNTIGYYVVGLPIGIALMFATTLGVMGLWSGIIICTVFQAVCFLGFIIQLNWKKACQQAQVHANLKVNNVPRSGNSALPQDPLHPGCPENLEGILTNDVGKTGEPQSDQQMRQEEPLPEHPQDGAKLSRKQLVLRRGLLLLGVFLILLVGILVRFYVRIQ
Protocol: as §1

IC50 (human transporter OCT2): > 100 µM | IC50 [1]: 14.6 µM | IC50 (human transporter MATE1): 30.3 µM
SMILES: O=S(=O)(c1ccc(-n2cn[nH]c2=S)cc1)c1ccc(Cl)c(C(F)(F)F)c1 [Compound 1, 4-(4-((4-chloro-3-(trifluoromethyl)phenyl)sulfonyl)phenyl)-2,4-dihydro-3H-1,2,4-triazole-3-thione]
reduction of PK-resistant alpha synuclein levels in cortex compared to vehicle-treated mice ([2]; 5 mg/kg daily i.p.): 37% | reduction of PK-resistant alpha synuclein levels in cortex compared to vehicle-treated mice ([2]; 10 mg/kg daily i.p.): 36% | insoluble alpha-synuclein deposits (PK+resistant) in cortex, hippocampus and striatum ([2]; 1, 5 or 10 mg/kg per day i.p., statistically significant): reduced the insoluble alpha-synuclein deposits
